Numbered stars: 1 amine (or outer) side, 2 acyl side, 3 side chain; on linkers, the order of the positions; unused ones are H or OH. Bridge positions count the residues as written; N and C are the ends. Square brackets hold non-standard residues; d marks the D form. Peptide text beside a SMILES is read from it. Phe(4-NO2) = N[C@@H](Cc1ccc([N+](=O)[O-])cc1)C(=O)O; Phe(4-CH2NHiPr) = CC(C)NCc1ccc(C[C@H](N)C(=O)O)cc1; X1 = CC(C)CNCc1ccc(C[C@H](N[*:1])C(=O)[*:2])cc1; Phe(4-CH2NH2) = NCc1ccc(C[C@H](N)C(=O)O)cc1; d2Nal = N[C@H](Cc1ccc2ccccc2c1)C(=O)O
Tests used:
[1] = molecular target: Somatostatin receptor type 4 (Homo sapiens, UniProt P31391); test: Tested for ability to bind to 20 uM thick cryostat sections of a membrane pellet of cells transfected with human cloned somatostatin (sst) receptor subtype 4.
[2] = molecular target: Somatostatin receptor type 2 (Homo sapiens, UniProt P30874); test: Tested for ability to bind to 20 uM thick cryostat sections of a membrane pellet of cells transfected with human cloned somatostatin (sst) receptor subtype 2.
[3] = molecular target: Somatostatin receptor type 3 (Homo sapiens, UniProt P32745); test: Tested for ability to bind to 20 uM thick cryostat sections of a membrane pellet of cells transfected with human cloned somatostatin (sst) receptor subtype 3.
[4] = molecular target: Somatostatin receptor type 1 (Homo sapiens, UniProt P30872); test: Tested for ability to bind to 20 uM thick cryostat sections of a membrane pellet of cells transfected with human cloned somatostatin (sst) receptor subtype 1.
[5] = molecular target: Somatostatin receptor type 5 (Homo sapiens, UniProt P35346); test: Tested for ability to bind to 20 uM thick cryostat sections of a membrane pellet of cells transfected with human cloned somatostatin (sst) receptor subtype 5.
Somatostatin receptor type 5, sequence (P35346 whole entry): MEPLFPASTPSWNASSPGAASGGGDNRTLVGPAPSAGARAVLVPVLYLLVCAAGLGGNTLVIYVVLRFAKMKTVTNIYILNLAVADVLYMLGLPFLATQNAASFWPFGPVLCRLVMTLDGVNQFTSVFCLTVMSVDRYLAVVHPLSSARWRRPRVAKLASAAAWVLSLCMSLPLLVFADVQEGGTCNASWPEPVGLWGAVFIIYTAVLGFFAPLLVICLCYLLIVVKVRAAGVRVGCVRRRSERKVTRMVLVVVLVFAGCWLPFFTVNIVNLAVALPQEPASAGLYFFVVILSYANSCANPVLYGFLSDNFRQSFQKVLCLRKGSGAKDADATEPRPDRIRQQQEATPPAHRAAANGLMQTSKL

Somatostatin receptor type 4, sequence (P31391 whole entry): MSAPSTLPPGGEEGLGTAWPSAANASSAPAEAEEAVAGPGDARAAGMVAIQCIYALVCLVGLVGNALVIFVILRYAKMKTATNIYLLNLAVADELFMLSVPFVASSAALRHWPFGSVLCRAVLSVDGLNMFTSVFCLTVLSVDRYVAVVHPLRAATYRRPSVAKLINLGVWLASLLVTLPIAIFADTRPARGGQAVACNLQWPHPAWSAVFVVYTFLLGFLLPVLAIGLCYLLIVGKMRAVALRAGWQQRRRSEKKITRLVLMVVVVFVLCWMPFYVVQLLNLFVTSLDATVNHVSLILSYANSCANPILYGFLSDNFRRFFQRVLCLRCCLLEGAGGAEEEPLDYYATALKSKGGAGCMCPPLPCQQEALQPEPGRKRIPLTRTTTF
Somatostatin receptor type 2, sequence (P30874 whole entry): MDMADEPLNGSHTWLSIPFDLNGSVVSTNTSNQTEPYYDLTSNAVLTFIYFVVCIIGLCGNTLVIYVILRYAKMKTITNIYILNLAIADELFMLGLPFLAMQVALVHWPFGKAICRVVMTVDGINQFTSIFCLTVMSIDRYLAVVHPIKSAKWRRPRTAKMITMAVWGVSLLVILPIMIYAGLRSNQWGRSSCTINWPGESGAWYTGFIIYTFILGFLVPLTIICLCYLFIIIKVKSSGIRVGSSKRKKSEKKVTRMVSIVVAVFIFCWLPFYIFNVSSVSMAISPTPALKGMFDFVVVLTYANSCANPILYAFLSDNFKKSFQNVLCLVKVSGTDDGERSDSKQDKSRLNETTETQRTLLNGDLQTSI
Somatostatin receptor type 3, sequence (P32745 whole entry): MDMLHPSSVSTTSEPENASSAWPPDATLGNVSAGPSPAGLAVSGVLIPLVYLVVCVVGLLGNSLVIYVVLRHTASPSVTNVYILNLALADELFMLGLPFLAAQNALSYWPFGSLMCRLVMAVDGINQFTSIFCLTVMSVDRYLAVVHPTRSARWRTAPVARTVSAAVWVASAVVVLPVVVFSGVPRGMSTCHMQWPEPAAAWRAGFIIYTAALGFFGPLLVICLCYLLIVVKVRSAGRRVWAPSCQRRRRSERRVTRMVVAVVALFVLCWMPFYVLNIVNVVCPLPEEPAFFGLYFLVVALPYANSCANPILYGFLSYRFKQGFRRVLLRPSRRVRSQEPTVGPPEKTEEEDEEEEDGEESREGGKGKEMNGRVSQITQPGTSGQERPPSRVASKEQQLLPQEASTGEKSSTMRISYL
Somatostatin receptor type 1, sequence (P30872 whole entry): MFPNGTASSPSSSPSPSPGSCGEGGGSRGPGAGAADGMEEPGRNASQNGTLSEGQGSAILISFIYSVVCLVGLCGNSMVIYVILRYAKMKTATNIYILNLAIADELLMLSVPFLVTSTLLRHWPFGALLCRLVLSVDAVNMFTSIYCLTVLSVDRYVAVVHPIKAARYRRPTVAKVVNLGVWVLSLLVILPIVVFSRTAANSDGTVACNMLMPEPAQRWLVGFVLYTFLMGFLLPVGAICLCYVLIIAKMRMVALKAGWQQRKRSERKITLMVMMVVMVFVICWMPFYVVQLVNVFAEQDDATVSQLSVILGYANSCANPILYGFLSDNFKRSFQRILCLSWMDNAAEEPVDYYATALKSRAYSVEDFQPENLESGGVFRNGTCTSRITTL

## CC(C)NCc1ccc(C[C@@H]2NC(=O)[C@@H](Cc3c[nH]c4ccccc34)NC(=O)[C@H](Cc3ccccc3)NC(=O)[C@H](Cc3ccccc3)NC(=O)[C@H](CCCCN)NC(=O)[C@H](NC(=O)[C@@H](N)Cc3ccc(O)cc3)CSSC[C@@H](C(=O)O)NC(=O)[C@H](CO)NC(=O)[C@H]([C@@H](C)O)NC(=O)[C@H](Cc3ccccc3)NC(=O)[C@H]([C@@H](C)O)NC2=O)cc1
[1]
  IC50: > 1 µM
[2]
  IC50: > 10 µM
[3]
  IC50: > 1 µM

## CC(C)NCc1ccc(C[C@@H]2NC(=O)[C@@H](Cc3ccc4ccccc4c3)NC(=O)[C@H](Cc3ccccc3)NC(=O)[C@H](Cc3ccccc3)NC(=O)[C@H](CCCCN)NC(=O)[C@@H](NC(=O)CCc3ccc(O)cc3)CSSC[C@@H](C(=O)O)NC(=O)[C@H](CO)NC(=O)[C@H]([C@@H](C)O)NC(=O)[C@H](Cc3ccccc3)NC(=O)[C@H]([C@@H](C)O)NC2=O)cc1
[1]
  IC50: > 10 µM
[4]
  IC50: 0.563 µM
[2]
  IC50: > 1 µM
[5]
  IC50: > 10 µM
[3]
  IC50: > 1 µM

## CC(C)NCc1ccc(C[C@@H]2NC(=O)[C@@H](Cc3c[nH]c4ccccc34)NC(=O)[C@H](Cc3ccccc3)NC(=O)[C@H](Cc3ccccc3)NC(=O)[C@@H](N)CSSC[C@@H](C(=O)O)NC(=O)[C@H](Cc3ccccc3)NC(=O)[C@H]([C@@H](C)O)NC2=O)cc1 (H-CFF[dW][Phe(4-CH2NHiPr)]TFC-OH; disulfide 1-8)
[2]
  IC50: > 10 µM
[5]
  IC50: > 10 µM

## CC(C)NCc1ccc(C[C@@H]2NC(=O)[C@@H](Cc3c[nH]c4ccccc34)NC(=O)[C@H](Cc3ccccc3)NC(=O)[C@@H](NC(=O)[C@@H](N)Cc3ccc(O)cc3)CSSC[C@@H](C(=O)O)NC(=O)[C@H](Cc3ccccc3)NC(=O)[C@H]([C@@H](C)O)NC2=O)cc1 (H-YCF[dW][Phe(4-CH2NHiPr)]TFC-OH; disulfide 2-8)
[1]
  IC50: > 1 µM
[4]
  IC50: > 1 µM
[2]
  IC50: > 1 µM
[3]
  IC50: > 1 µM

## CC(C)CN(Cc1ccc(C[C@@H]2NC(=O)[C@@H](Cc3c[nH]c4ccccc34)NC(=O)[C@H](Cc3ccccc3)NC(=O)[C@H](Cc3ccccc3)NC(=O)[C@H](CCCCN)NC(=O)[C@@H](N)CSSC[C@@H](C(=O)O)NC(=O)[C@H](CO)NC(=O)[C@H]([C@@H](C)O)NC(=O)[C@H](Cc3ccccc3)NC(=O)[C@H]([C@@H](C)O)NC2=O)cc1)CC(C)C
[1]
  IC50: > 10 µM
[4]
  IC50: > 1 µM
[2]
  IC50: > 10 µM
[5]
  IC50: > 10 µM
[3]
  IC50: > 10 µM

## CC(C)NCc1ccc(C[C@@H]2NC(=O)[C@@H](Cc3cn(Cc4ccccc4)cn3)NC(=O)[C@H](Cc3ccccc3)NC(=O)[C@H](Cc3ccccc3)NC(=O)[C@H](CCCCN)NC(=O)[C@@H](N)CSSC[C@@H](C(=O)O)NC(=O)[C@H](CO)NC(=O)[C@H]([C@@H](C)O)NC(=O)[C@H](Cc3ccccc3)NC(=O)[C@H]([C@@H](C)O)NC2=O)cc1
[1]
  IC50: > 10 µM
[4]
  IC50: > 1 µM
[2]
  IC50: > 1 µM
[5]
  IC50: > 10 µM
[3]
  IC50: > 1 µM

## C[C@@H](O)[C@@H]1NC(=O)[C@H](Cc2ccccc2)NC(=O)[C@H]([C@@H](C)O)NC(=O)[C@H](CCCCN)NC(=O)[C@@H](Cc2c[nH]c3ccccc23)NC(=O)[C@H](Cc2ccccc2)NC(=O)[C@H](Cc2ccccc2)NC(=O)[C@H](CC(N)=O)NC(=O)[C@H](CCCCN)NC(=O)[C@@H](N)CSSC[C@@H](C(=O)O)NC(=O)[C@H](CO)NC1=O
[1]
  IC50: 0.0035 µM
[4]
  IC50: 0.0054 µM
[2]
  IC50: 0.00033 µM
[5]
  IC50: 0.0167 µM
[3]
  IC50: 0.0043 µM

## CC(C)NCc1ccc(C[C@@H]2NC(=O)[C@@H](Cc3c[nH]c4ccccc34)NC(=O)[C@H](Cc3ccccc3)NC(=O)[C@H](Cc3ccccc3)NC(=O)[C@H](CCCCN)NC(=O)[C@@H](N)CSSC[C@@H](C(=O)O)NC(=O)[C@H](CO)NC(=O)[C@H]([C@@H](C)O)NC(=O)[C@H](Cc3ccccc3)NC(=O)[C@H]([C@@H](C)O)NC2=O)cc1 (H-CKFF[dW][Phe(4-CH2NHiPr)]TFTSC-OH; disulfide 1-11)
[2]
  IC50: > 10 µM
[5]
  IC50: > 10 µM
[3]
  IC50: 0.345 µM

## C[C@@H](O)[C@@H]1NC(=O)[C@H](Cc2ccccc2)NC(=O)[C@H]([C@@H](C)O)NC(=O)[C@H](Cc2ccc(CN)cc2)NC(=O)[C@@H](Cc2c[nH]c3ccccc23)NC(=O)[C@H](Cc2ccccc2)NC(=O)[C@H](Cc2ccccc2)NC(=O)[C@H](CCCCN)NC(=O)[C@@H](N)CSSC[C@@H](C(=O)O)NC(=O)[C@H](CO)NC1=O (H-CKFF[dW][Phe(4-CH2NH2)]TFTSC-OH; disulfide 1-11)
[1]
  IC50: 0.267 µM
[4]
  IC50: 0.309 µM
[2]
  IC50: 0.213 µM
[5]
  IC50: 0.19 µM
[3]
  IC50: 0.273 µM

## CC(C)NCc1ccc(C[C@@H]2NC(=O)[C@@H](Cc3ccc4ccccc4c3)NC(=O)[C@H](Cc3ccccc3)NC(=O)[C@H](Cc3ccccc3)NC(=O)[C@H](CCCCN)NC(=O)[C@@H](N)CSSC[C@@H](C(=O)O)NC(=O)[C@H](CO)NC(=O)[C@H]([C@@H](C)O)NC(=O)[C@H](Cc3ccccc3)NC(=O)[C@H]([C@@H](C)O)NC2=O)cc1 (H-CKFF[d2Nal][Phe(4-CH2NHiPr)]TFTSC-OH; disulfide 1-11)
[1]
  IC50: > 1 µM
[4]
  IC50: 0.103 µM
[2]
  IC50: > 1 µM
[5]
  IC50: > 10 µM
[3]
  IC50: > 1 µM

## CC(C)NCc1ccc(C[C@@H]2NC(=O)[C@@H](Cc3ccc4ccccc4c3)NC(=O)[C@H](Cc3ccc([N+](=O)[O-])cc3)NC(=O)[C@H](Cc3ccccc3)NC(=O)[C@H](CCCCN)NC(=O)[C@@H](N)CSSC[C@@H](C(=O)O)NC(=O)[C@H](CO)NC(=O)[C@H]([C@@H](C)O)NC(=O)[C@H](Cc3ccccc3)NC(=O)[C@H]([C@@H](C)O)NC2=O)cc1 (H-CKF[Phe(4-NO2)][d2Nal][Phe(4-CH2NHiPr)]TFTSC-OH; disulfide 1-11)
[1]
  IC50: > 1 µM
[4]
  IC50: 0.035 µM
[2]
  IC50: > 1 µM
[5]
  IC50: > 1 µM
[3]
  IC50: 0.975 µM

## CC(C)NCc1ccc(C[C@@H]2NC(=O)[C@@H](Cc3ccc4ccccc4c3)NC(=O)[C@H](Cc3ccccc3)NC(=O)[C@H](Cc3ccccc3)NC(=O)[C@H](CCCCN)NC(=O)[C@H](NC(=O)CCc3ccc(O)cc3)CSSC[C@@H](C(=O)O)NC(=O)[C@H](CO)NC(=O)[C@H]([C@@H](C)O)NC(=O)[C@H](Cc3ccccc3)NC(=O)[C@@H]([C@@H](C)O)NC2=O)cc1 (stereo in doubt; 31)
[1]
  IC50: > 1 µM
[4]
  IC50: 0.975 µM
[2]
  IC50: > 10 µM
[5]
  IC50: > 10 µM
[3]
  IC50: > 1 µM

## CC(C)NCc1ccc(C[C@@H]2NC(=O)[C@@H](Cc3c[nH]c4ccccc34)NC(=O)[C@H](Cc3ccccc3)NC(=O)[C@H](Cc3ccccc3)NC(=O)[C@H](CCCCN)NC(=O)[C@@H](NC(=O)[C@@H](N)Cc3ccc(O)cc3)CSSC[C@@H](C(=O)O)NC(=O)[C@H](CO)NC(=O)[C@H]([C@@H](C)O)NC(=O)[C@H](Cc3ccccc3)NC(=O)[C@H]([C@@H](C)O)NC2=O)cc1
[1]
  IC50: > 10 µM
[3]
  IC50: 0.713 µM

## CC(C)CNCc1ccc(C[C@@H]2NC(=O)[C@@H](Cc3c[nH]c4ccccc34)NC(=O)[C@H](Cc3ccccc3)NC(=O)[C@H](Cc3ccccc3)NC(=O)[C@H](CCCCN)NC(=O)[C@@H](N)CSSC[C@@H](C(=O)O)NC(=O)[C@H](CO)NC(=O)[C@H]([C@@H](C)O)NC(=O)[C@H](Cc3ccccc3)NC(=O)[C@H]([C@@H](C)O)NC2=O)cc1 (H-CKFF[dW][X1]TFTSC-OH; disulfide 1-11)
[1]
  IC50: > 1 µM
[4]
  IC50: 0.13 µM
[2]
  IC50: > 1 µM
[5]
  IC50: > 1 µM
[3]
  IC50: 0.381 µM

## CC(C)NCc1ccc(C[C@@H]2NC(=O)[C@@H](Cc3ccc4ccccc4c3)NC(=O)[C@H](Cc3ccccc3)NC(=O)[C@H](Cc3ccccc3)NC(=O)[C@H](CCCCN)NC(=O)[C@H](NC(=O)CCc3ccc(O)cc3)CSSC[C@H](C(=O)O)NC(=O)[C@H](CO)NC(=O)[C@H]([C@@H](C)O)NC(=O)[C@H](Cc3ccccc3)NC(=O)[C@H]([C@@H](C)O)NC2=O)cc1
[1]
  IC50: > 1 µM
[4]
  IC50: > 1 µM
[2]
  IC50: > 1 µM
[5]
  IC50: > 1 µM
[3]
  IC50: > 1 µM

## C[C@@H](O)[C@@H]1NC(=O)[C@H](Cc2ccccc2)NC(=O)[C@H]([C@@H](C)O)NC(=O)[C@H](Cc2ccc(Nc3nnc(N)[nH]3)cc2)NC(=O)[C@@H](Cc2c[nH]c3ccccc23)NC(=O)[C@H](Cc2ccccc2)NC(=O)[C@H](Cc2ccccc2)NC(=O)[C@H](CCCCN)NC(=O)[C@@H](N)CSSC[C@@H](C(=O)O)NC(=O)[C@H](CO)NC1=O
[1]
  IC50: > 10 µM
[4]
  IC50: > 1 µM
[2]
  IC50: > 10 µM
[5]
  IC50: > 10 µM
[3]
  IC50: > 10 µM

## CC(C)NCc1ccc(C[C@@H]2NC(=O)[C@@H](Cc3ccc4ccccc4c3)NC(=O)[C@H](Cc3ccccc3)NC(=O)[C@H](Cc3ccccc3)NC(=O)[C@H](CCCCN)NC(=O)[C@H](NC(=O)CCc3ccc(O)cc3)CSSC[C@@H](C(=O)O)NC(=O)[C@H](CO)NC(=O)[C@H]([C@@H](C)O)NC(=O)[C@H](Cc3ccccc3)NC(=O)[C@@H]([C@@H](C)O)NC2=O)cc1 (stereo in doubt; 30)
[4]
  IC50: 0.845 µM
[5]
  IC50: > 1 µM
[3]
  IC50: 0.75 µM

## CC(C)NCc1ccc(C[C@@H]2NC(=O)[C@@H](Cc3c[nH]c4ccccc34)NC(=O)[C@H](Cc3ccccc3)NC(=O)[C@H](Cc3ccccc3)NC(=O)[C@@H](NC(=O)[C@@H](N)Cc3ccc(O)cc3)CSSC[C@@H](C(=O)O)NC(=O)[C@H]([C@@H](C)O)NC(=O)[C@H](Cc3ccccc3)NC(=O)[C@H]([C@@H](C)O)NC2=O)cc1
[1]
  IC50: > 1 µM
[4]
  IC50: 0.72 µM
[2]
  IC50: > 10 µM
[3]
  IC50: 0.445 µM

## C[C@@H](O)[C@@H]1NC(=O)[C@H](CCCCN)NC(=O)[C@@H](Cc2c[nH]c3ccccc23)NC(=O)[C@H](Cc2ccccc2)NC(=O)[C@H](Cc2ccccc2)NC(=O)[C@@H](N)CSSC[C@@H](C(=O)O)NC(=O)[C@H](Cc2ccccc2)NC1=O (H-CFF[dW]KTFC-OH; disulfide 1-8)
[1]
  IC50: 0.0013 µM
[2]
  IC50: 0.0438 µM

Source: ChEMBL document CHEMBL1134520, “Potent somatostatin undecapeptide agonists selective for somatostatin receptor 1 (sst1)” (J Med Chem, 2001)
